The results in this text go back to ChEMBL document CHEMBL1141549, “Synthesis and antihyperglycemic activity of novel N-acyl-2-arylethylamines and N-acyl-3-coumarylamines” (2008).

The test system of the experiment is Rattus norvegicus. Nature of the experiment: Antihyperglycemic activity in sucrose loaded diabetic Sprague-Dawley rat model assessed as reduction of plasma glucose levels at 100 mg/kg, po. The class given is functional. Further details: scale not given: the % may be the effect or the level left.
As for `COc1cc(/C=C/C(=O)NCCc2ccc(OC)c(OC)c2)ccc1O`, the Activity worked out at 30.7%. With `COc1ccc(CCNC(=O)/C=C/c2cc(OC)c(OC)c(OC)c2)cc1OC` the figure was 2.41%; with `COc1ccc(/C=C/C(=O)NCCc2ccc(OC)c(OC)c2)cc1`, 19.5%. Take `COc1ccc(CCNC(=O)/C=C/c2ccccc2)cc1OC`: the Activity was 20.1%.

As for `COc1ccc(CCNC(=O)/C=C/c2ccc(F)cc2)cc1OC`, the Activity is on record as 23.4%. For the molecule `COc1ccc(CCNC(=O)/C=C/c2ccc(Cl)cc2)cc1OC`, the Activity turned out to be 21.5%. On to `COc1ccc(CCNC(=O)/C=C/c2cccc(C(F)(F)F)c2)cc1OC`, for which the Activity amounted to 32.8%.

As to `O=C(/C=C/c1ccccc1)Nc1cc2ccccc2oc1=O`, the Activity is listed as 22.3%. As for `CC(C)(C)c1cc(C(C)(C)C)c2oc(=O)c(NC(=O)/C=C/c3cccc(C(F)(F)F)c3)cc2c1`, the Activity came out at 21.1%. With `O=C(Nc1cc2ccccc2oc1=O)c1ccccc1` the figure was 10.7%. As for `CC(C)(C)c1cc(C(C)(C)C)c2oc(=O)c(NC(=O)c3ccccc3)cc2c1`, the Activity is on record as 23.3%.

For `COc1cccc(/C=C/C(=O)NCCc2ccc(OC)c(OC)c2)c1`, the Activity worked out at 25.2%. With `CC(C)(C)c1cc(C(C)(C)C)c2oc(=O)c(NC(=O)/C=C/c3ccccc3)cc2c1` the figure was 8.89%; with `COc1ccc(Cl)cc1C(=O)NCCc1ccc(S(=O)(=O)NC(=O)NC2CCCCC2)cc1` [GLYBURIDE], 33.7%. In the case of `CN(C)C(=N)NC(=N)N` [METFORMIN] it was 12.9%.
